Test results from patent US8338565B2, “Macrocyclic compounds for inhibition of tumor necrosis factor alpha” (Ensemble Therapeutics Corporation, priority 2008, dated 2012).
Read-outs that look alike come from different tables or passages of the source. Numbered stars: 1 amine (or outer) side, 2 acyl side, 3 side chain; on linkers, the order of the positions; unused ones are H or OH. Bridge positions count the residues as written; N and C are the ends. Square brackets hold non-standard residues; d marks the D form. Peptide text beside a SMILES is read from it. Tartaroyl(2R,3R-(OAc)2) = CC(=O)O[C@@H](C(=O)[*:1])[C@@H](OC(C)=O)C(=O)[*:2]; Bip(4'-Cl) = N[C@@H](Cc1ccc(-c2ccc(Cl)cc2)cc1)C(=O)O; Phe(4-CF3) = N[C@@H](Cc1ccc(C(F)(F)F)cc1)C(=O)O; dPhe(4-CF3) = N[C@H](Cc1ccc(C(F)(F)F)cc1)C(=O)O; Phe(2,4-Cl2) = N[C@@H](Cc1ccc(Cl)cc1Cl)C(=O)O; Bip = N[C@@H](Cc1ccc(-c2ccccc2)cc1)C(=O)O; dBip = N[C@H](Cc1ccc(-c2ccccc2)cc1)C(=O)O; dPhe(4-NH2) = Nc1ccc(C[C@@H](N)C(=O)O)cc1; Phe(4-Br) = N[C@@H](Cc1ccc(Br)cc1)C(=O)O; Phe(4-NH2) = Nc1ccc(C[C@H](N)C(=O)O)cc1; d(hPhe) = N[C@H](CCc1ccccc1)C(=O)O; d2Thi = N[C@H](Cc1cccs1)C(=O)O; Suc = O=C(CCC(=O)[*:2])[*:1]

Legend:
[1] = target: T1, TNFα / TNFα receptor (TNFα R1/Fc) (Homo sapiens, UniProt P01375); experiment: Inhibition of binding of TNFα to the TNFα receptor (plate ELISA competition); settings: Table 2
T1 construct: purchased R&D Systems
T1 sequence (P01375 77-233 limits assumed, species assumed): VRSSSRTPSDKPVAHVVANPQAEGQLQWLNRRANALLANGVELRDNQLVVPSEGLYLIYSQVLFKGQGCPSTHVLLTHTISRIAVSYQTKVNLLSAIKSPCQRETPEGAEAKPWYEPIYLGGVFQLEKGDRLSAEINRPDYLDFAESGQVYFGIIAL
Summary of the method: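 Plates were coated with TNFα at 15 nM. Test compound and 8.33 nM receptor-Fc (PBST, 2% DMSO) were first mixed in solution for 30 min at room temperature, then transferred to the plates for another 30 min. Competition was read by absorbance at 450 nm after HRP anti-human IgG Fc detection with TMB.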

[2] = tested on: TNF-α (degradation of IkB in HeLa cells or A431 cells); experiment: Human cell-based assay: inhibition of TNF-α induced degradation of IkB; settings: for inhibition at 25 µM: 25 μM compound, read-out: Inhibition at Various Compound Concentrations, 25 μM; for inhibition at 10 µM: read-out: Inhibition at Various Compound Concentrations, 10 μM; for inhibition at 5 µM: read-out: Inhibition at Various Compound Concentrations, 5 μM
Description: We used a human cell-based assay to determine the TNF-α antagonistic activity of the compounds of this invention based upon the ability of the compounds to inhibit the degradation of IkB in those cells. The assay was performed on either HeLa cells or A431 cells.
On Day 1, wells of a 24-well tissue culture plate were seeded with cells that had been harvested from cultures in T-75 flasks by standard trypsin/EDTA treatment. The harvested cells were suspended in EMEM/10% FBS/P/S (100,000 HeLa cells/mL or 200,000 A431 cells/mL) and 1 mL aliquots were placed into each well. The cells were incubated overnight at 37° C. in a humidified CO2 incubator. On day 2, the cells were approximately 95% confluent.
Test and control compounds were diluted to a 1 mM solution by dilution in DMSO. The assay was run in Costar tubes. Into each tube was placed 2.5 or 5.0 μL of test compound (for testing 5 μM and 10 μM concentrations, respectively), 2.5 μL of 100× TNF-α solution (200 ng/mL TNF-α in EMEM containing 1μg/mL cycloheximide) and, for those tubes containing 2.5 μL of compound, an additional 2.5 μL of DMSO. To each tube was then added 0.5 mL of EMEM containing 1μg/mL cycloheximide. Negative control tubes contained either a) no compound, or b) no TNF-α. Tubes were then incubated for 30 minutes at room temperature.
Once incubation had begun, the media was aspirated from the cells in the 24-well plates. Sufficient EMEM/10% FBS/P/S containing 1 ug/mL cycloheximide was then added to cover the cells (approximately 3 mL) and the cells were retuned to the 37° C. humidified CO2 incubator until compound incubation was completed. The media was then aspirated from the cells, 0.2 mL of the compound solution was added and the cells re-incubated at 37° C. for 30 minutes. The plates were then placed on ice, the compound solution was aspirated from each well, and the cells washed once with 1 mL of cold PBS. Cells were then fixed with 500 μL of 3.7% formaldehyde in PBS (“fix solution”) for 20 minutes at room temperature. The fix solution was decanted and the cells permeabilized by 4× washing with 500 uL PBS/0.1% Triton X-100. After the final permeabilization wash, the cells were treated with 500 uL of Odyssey blocking buffer (OBB) and incubated at room temperature with shaking for 90 minutes.
The OBB was decanted and then to each well was then added 125 μL each of mouse anti-IkB CST#4814 (diluted 1:200 in OBB) and rabbit anti-beta-tubulin CST#2146 (diluted 1:200 in OBB). Plates were sealed with parafin and incubated overnight at room temperature with shaking.
On day 3, the antibody solution was removed from the cells and the cells were washed 5× with 0.5 mL PBST for five minutes each on a shaker. To each well was then aded 125 μL of a secondary antibody solution containing goat anti-mouse IgG-IRDye 800 and goat anti-rabbit IgG-IRDye (each diluted 1:500 in OBB+0.2% Tween 20). The plates were covered with aluminum foil and incubated for 1 hour at room temperature with shaking. The secondary antibody solution was removed and the cells washed 3× with 0.5 mL PBST for five minutes each on a shaker. Cells were then scanned by LICOR with the following settings: 700 intensity=6.0, 800 intensity=6.5; microplate2 settings with 3.0 mm offset; 169 resolution. LICOR values were fitted to an equation for a sigmoidal curve and IC50 values calculated from the fitted parameters. […] Blank cells indicate that the compound was not tested at that concentration. Certain compounds that were tested more than once and the values reflect the average of the multiple tests.

[3] = read-out: Activity (IC50, inhibition of TNFα binding to TNFα R1/Fc)
[4] = 10 μM compound, HeLa or A431 cells
[5] = 5 μM compound, HeLa or A431 cells

O=C1CCC(=O)N[C@H](Cc2cccs2)C(=O)N[C@@H](Cc2ccc(Br)cc2)C(=O)N[C@H](Cc2ccccc2)C(=O)N[C@H](C(=O)O)Cc2ccc(cc2)N1 [Compound 85] ([d2Thi][Phe(4-Br)][dF][Phe(4-NH2)]-OH; linker N-4 via Suc)
IC50 [1, 3]: 10 to 30 µM
inhibition at 25 µM ([2]; HeLa or A431 cells): < 10%

O=C1CCC(=O)N[C@H](Cc2cccs2)C(=O)N[C@@H](Cc2ccc(C(F)(F)F)cc2)C(=O)N[C@H](Cc2ccccc2)C(=O)N[C@H](C(=O)O)Cc2ccc(cc2)N1 [Compound 89] ([d2Thi][Phe(4-CF3)][dF][Phe(4-NH2)]-OH; linker N-4 via Suc)
IC50 [1, 3]: 10 to 30 µM
inhibition at 25 µM ([2]; HeLa or A431 cells): < 10%

O=C1CCC(=O)N[C@H](CCc2ccccc2)C(=O)N[C@@H](Cc2ccc(Br)cc2)C(=O)N[C@H](Cc2ccccc2)C(=O)N[C@@H](C(=O)O)Cc2ccc(cc2)N1 [Compound 111] ([d(hPhe)][Phe(4-Br)][dF][dPhe(4-NH2)]-OH; linker N-4 via Suc)
IC50 [1, 3]: 10 to 30 µM
inhibition at 10 µM [2, 4]: < 10%

O=C1CCC(=O)N[C@H](CCc2ccccc2)C(=O)N[C@@H](Cc2ccc(Cl)cc2Cl)C(=O)N[C@H](Cc2ccccc2)C(=O)N[C@@H](C(=O)O)Cc2ccc(cc2)N1 [Compound 112] ([d(hPhe)][Phe(2,4-Cl2)][dF][dPhe(4-NH2)]-OH; linker N-4 via Suc)
IC50 [1, 3]: < 10 µM
inhibition at 10 µM [2, 4]: < 10%

O=C1CCC(=O)N[C@H](CCc2ccccc2)C(=O)N[C@@H](Cc2ccc(-c3ccc(Cl)cc3)cc2)C(=O)N[C@H](Cc2ccccc2)C(=O)N[C@H](C(=O)O)Cc2ccc(cc2)N1 [Compound 116] ([d(hPhe)][Bip(4'-Cl)][dF][Phe(4-NH2)]-OH; linker N-4 via Suc)
IC50 [1, 3]: < 10 µM
inhibition at 5 µM [2, 5]: 10 to 50%
inhibition at 10 µM [2, 4]: < 10%

O=C1CCC(=O)N[C@H](CCc2ccccc2)C(=O)N[C@@H](Cc2ccc(-c3ccccc3)cc2)C(=O)N[C@H](Cc2ccccc2)C(=O)N[C@H](C(=O)O)Cc2ccc(cc2)N1 [Compound 117] ([d(hPhe)][Bip][dF][Phe(4-NH2)]-OH; linker N-4 via Suc)
IC50 [1, 3]: < 10 µM
inhibition at 5 µM [2, 5]: < 10%
inhibition at 10 µM [2, 4]: 50 to 80%

O=C1CCC(=O)N[C@H](Cc2ccc(C(F)(F)F)cc2)C(=O)N[C@@H](Cc2ccc(-c3ccccc3)cc2)C(=O)N[C@H](Cc2ccccc2)C(=O)N[C@H](C(=O)O)Cc2ccc(cc2)N1 [Compound 118] ([dPhe(4-CF3)][Bip][dF][Phe(4-NH2)]-OH; linker N-4 via Suc)
IC50 [1, 3]: 10 to 30 µM
inhibition at 10 µM [2, 4]: 10 to 50%

O=C1COc2ccc(cc2)C[C@@H](C(=O)N[C@@H](Cc2ccccc2)C(=O)O)NC(=O)[C@@H](CCc2ccc(C(F)(F)F)cc2)NC(=O)[C@H](Cc2ccccc2)NC(=O)[C@@H](Cc2ccc(C(F)(F)F)cc2)N1 [Compound 157]
IC50 [1, 3]: < 10 µM
inhibition at 5 µM [2, 5]: 10 to 50%
inhibition at 10 µM [2, 4]: 50 to 80%

O=C1COc2ccc(cc2)C[C@@H](C(=O)N[C@@H](Cc2ccccc2)C(=O)O)NC(=O)[C@@H](CCc2ccccc2)NC(=O)[C@H](Cc2ccc(-c3ccccc3)cc2)NC(=O)[C@@H](CCc2ccccc2)N1 [Compound 158]
IC50 ([1]; Activity (IC50, inhibition of TNFα binding to TNFα R1/Fc)): < 10 µM
inhibition at 5 µM [2]: 50 to 80%
inhibition at 10 µM [2]: 50 to 80%

O=C(O)[C@@H]1Cc2ccc(cc2)NC(=O)[C@H](O)[C@@H](O)C(=O)N[C@H](Cc2cccs2)C(=O)N[C@@H](Cc2ccc(-c3ccc(Cl)cc3)cc2)C(=O)N[C@H](Cc2ccccc2)C(=O)N1 [Compound 180]
IC50 [1, 3]: < 10 µM
inhibition at 5 µM [2, 5]: < 10%
inhibition at 10 µM [2, 4]: < 10%

O=C1CCC(=O)N[C@H](Cc2cccs2)C(=O)N[C@H](Cc2ccc(-c3ccccc3)cc2)C(=O)N[C@H](Cc2ccccc2)C(=O)N[C@H](C(=O)O)Cc2ccc(cc2)N1 [Compound 194] ([d2Thi][dBip][dF][Phe(4-NH2)]-OH; linker N-4 via Suc)
IC50 [1, 3]: > 100 µM
inhibition at 25 µM ([2]; HeLa or A431 cells): < 10%

O=C1CCC(=O)N[C@H](Cc2cccs2)C(=O)N[C@@H](Cc2ccc(-c3ccccc3)cc2)C(=O)N[C@H](Cc2ccccc2)C(=O)N[C@@H](C(=O)O)Cc2ccc(cc2)N1 [Compound 196] ([d2Thi][Bip][dF][dPhe(4-NH2)]-OH; linker N-4 via Suc)
IC50 [1, 3]: < 10 µM
inhibition at 25 µM ([2]; HeLa or A431 cells): < 10%

O=C1CCC(=O)N[C@H](Cc2cccs2)C(=O)N[C@@H](Cc2ccc(-c3ccccc3)cc2)C(=O)N[C@H](Cc2ccccc2)C(=O)N[C@@H](C(=O)N[C@@H](Cc2ccccc2)C(=O)O)Cc2ccc(cc2)N1 [Compound 198] ([d2Thi][Bip][dF][dPhe(4-NH2)]F-OH; linker N-4 via Suc)
IC50 [1, 3]: < 10 µM
inhibition at 25 µM ([2]; HeLa or A431 cells): 50 to 80%

O=C1CCC(=O)N[C@H](Cc2cccs2)C(=O)N[C@@H](Cc2ccc(Br)cc2)C(=O)N[C@H](Cc2ccccc2)C(=O)N[C@H](C(=O)N[C@@H](Cc2ccccc2)C(=O)O)Cc2ccc(cc2)N1 [Compound 201] ([d2Thi][Phe(4-Br)][dF][Phe(4-NH2)]F-OH; linker N-4 via Suc)
IC50 [1, 3]: < 10 µM
inhibition at 10 µM [2, 4]: 10 to 50%

O=C1COc2ccc(cc2)C[C@@H](C(=O)O)NC(=O)[C@H](Cc2ccccc2)NC(=O)[C@H](Cc2ccc(-c3ccccc3)cc2)NC(=O)[C@H](Cc2cccs2)N1 [Compound 212]
IC50 [1, 3]: < 10 µM
inhibition at 5 µM [2]: < 10%
inhibition at 10 µM [2]: < 10%

CC(=O)O[C@H]1C(=O)Nc2ccc(cc2)C[C@H](C(=O)O)NC(=O)[C@@H](CCc2ccccc2)NC(=O)[C@H](Cc2ccc(-c3ccccc3)cc2)NC(=O)[C@@H](Cc2cccs2)NC(=O)[C@@H]1OC(C)=O [Compound 217] ([d2Thi][Bip][d(hPhe)][dPhe(4-NH2)]-OH; linker N-4 via Tartaroyl(2R,3R-(OAc)2))
IC50 [1, 3]: < 10 µM
inhibition at 5 µM [2, 5]: < 10%
inhibition at 10 µM [2, 4]: < 10%

O=C1N[C@H](CCc2ccccc2)C(=O)N[C@@H](C(=O)O)Cc2ccc(cc2)NC(=O)[C@H](O)[C@@H](O)C(=O)N[C@H](Cc2cccs2)C(=O)N[C@H]1Cc1ccc(-c2ccccc2)cc1 [Compound 236]
IC50 [1, 3]: < 10 µM
inhibition at 5 µM [2, 5]: 10 to 50%
inhibition at 10 µM [2, 4]: 10 to 50%

O=C1N[C@H](CCc2ccccc2)C(=O)N[C@@H](C(=O)O)Cc2ccc(cc2)NC(=O)[C@H](O)[C@@H](O)C(=O)N[C@H](Cc2ccccc2)C(=O)N[C@H]1Cc1ccc(Br)cc1 [Compound 237]
IC50 [1, 3]: < 10 µM
inhibition at 5 µM [2, 5]: < 10%
inhibition at 10 µM [2, 4]: < 10%

O=C1N[C@H](CCc2ccccc2)C(=O)N[C@@H](C(=O)O)Cc2ccc(cc2)NC(=O)[C@H](O)[C@@H](O)C(=O)N[C@H](Cc2ccccc2)C(=O)N[C@H]1Cc1ccc(Cl)cc1Cl [Compound 239]
IC50 [1, 3]: < 10 µM
inhibition at 5 µM [2, 5]: < 10%
inhibition at 10 µM [2, 4]: < 10%
